# Measured values taken from patent US20230293432A1, “POLYMERIC MICELLES COMPRISING GLUCURONIDE-PRODRUGS” (Rheinisch-Westfälische Technische Hochschule (RWTH), priority 2020, published 2023).
# System: breast cancer 4T1 cells
# Assay: In vitro calreticulin (CRT) translocation by flow cytometry
# Type: cell-based
# Conditions: anti-CRT antibody staining, vs untreated control, FIG. 6A
# Protocol: In a further experiment the ability of doxorubicin and doxorubicin double spacer prodrug and doxorubicin double spacer prodrug in polymeric micelles to induce immunogenicity of tumor cells was assessed in vitro. As one of the most studied phenotypes of immunogenic cell death, calreticulin (CRT) […] to outer surface of cancer cells is able to attract antigen presenting cells to endocytose apoptotic cancer cells. CRT translocation was measured by flow cryometry. To assess CRT translocation induced by the formulations, they were added to breast cancer 4T1 cells which were cultured overnight at 37° C. in RPMI 1640 medium containing 10% FBS and 1% penicillin. After incubation, the cells were washed with PBS and then detached. The CRT translocated to the outer surface of the cells was labeled with anti-CRT antibodies.
smiles,measurement,value
"COc1cccc2c1C(=O)c1c(O)c3c(c(O)c1C2=O)C[C@@](O)(C(=O)CO)C[C@@H]3O[C@H]1C[C@H](N)[C@H](O)[C@H](C)O1 [DOX, doxorubicin]",signal of CRT in flow cytometry plots,higher signal of CRT compared to untreated control
